Data from publication PMC10987829 (iScience, 2024).

How the values were obtained:
H2A/H2B dimers = H2A/H2B dimers (Xenopus laevis, UniProt P02281+P06897); assay: Protein thermal shift; assay type: binding; details: H2A/H2B 0.5 mg/mL, ligand 1.2:1 molar ratio, 50 mM Bis-Tris propane pH 7.4, 150 mM NaCl, 10X SYPRO Orange; apo H2A/H2B Tm 46.1 ± 0.2°C; three replicates
H3/H4 = details: cited from earlier work
[1] = biological target: Npm2 A2mockglu4 peptide (…), 'pseudo-glutamylated' (Xenopus laevis); assay: other fluorescence titration
mononucleosomes = assay: Disassembly of premade mononucleosomes; assay type: biochemical; details: salt-dialysis mononucleosomes, increasing chaperone

DYDEEGEEADDEEGEEEADEDHDPDFDPK [Nap1 A3 (350–382)]
change of H2A/H2B melting temperature (Tm) (H2A/H2B dimers): 6.7 °C

Npm2 Tail (119–146): Npm2 C-terminal Tail domain peptide, residues 119–146, purified as previously described (AMEEDYSWAEEEDEGEEEEEEEEDPESP)
fold lower affinity for H3/H4 than for H2A/H2B (H3/H4): 5 fold

Xenopus laevis H2A/H2B heterodimer (from UniProt P06897;P02281) (complex)
Kd [1]: 300 nM

B1: Nap1glu: TTLL4-treated (glutamylated) full-length Nap1 (protein)
chain: MANIDNKGQTELDQQDMEDVEDVEEEETGEDANSKARQLTAQMMQNPQVLAALQERLDDLVGTPTGYIESLPKVVKRRVNALKNLQVKCAQIEAKFYEEVHELERKYAALYQPLFDKRSDIINATYEPTEEECEWKVEEEDISGDLKEKAKLEEEKKDEEKEDPKGIPEFWLTVFKNVDLLSDMLQEHDEPILKHLKDIKVKFSDAGQPMSFTLEFYFEPNEFFTNEVLTKTYKMRSEPDESDPFSFDGPEIMGCTGCLIDWKKGKNVTLKTIKKKQKHKGRGTVRTVTKTVPNDSFFNFFTPPEVPENGELDDDAEAILTADFEIGHFLRERIIPRSVLYFTGEAIEDDDDDYDEEGEEADDEEGEEEADEDNDPDYEPKV
disassembly of premade mononucleosomes (mononucleosomes): neither Nap1 nor Nap1glu were able to disassemble premade mononucleosomes
